Experimental data as given in US20250057873A1, “Intestinal Tumor Suppressor, PGE2 Production Inhibitor, and IL-22BP Production Promoter” (TOKYO UNIVERSITY OF SCIENCE FOUNDATION, priority 2021, published 2025).

Assays:
DECTIN-1 [1] = target: T1, DECTIN-1 (Homo sapiens, UniProt Q9BXN2); assay: Curdlan stimulation of human CRC tissues or cancer-infiltrating leukocytes, qPCR; assay type: cell-based; settings: Curdlan 20 hours
T1 construct: endogenous in cells; host or cells: tumour-infiltrating cells and small tumour tissue pieces from surgical specimens of human CRC patients
T1 sequence (Q9BXN2 1-247): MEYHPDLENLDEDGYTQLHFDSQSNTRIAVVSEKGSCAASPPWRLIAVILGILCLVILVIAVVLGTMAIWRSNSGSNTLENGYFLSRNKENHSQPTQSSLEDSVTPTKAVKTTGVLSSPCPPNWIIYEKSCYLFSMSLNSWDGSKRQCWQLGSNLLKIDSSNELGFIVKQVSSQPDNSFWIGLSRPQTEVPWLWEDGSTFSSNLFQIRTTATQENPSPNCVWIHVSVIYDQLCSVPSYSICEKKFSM
Experimental: (§1) FIG. 7g: CRC samples were collected, and tumor-infiltrating cells were stimulated with Curdlan for 20 hours. In the case of the laminarin treatment, the cells were first treated with laminarin for 4 hours, and thereafter, were supplied with Curdlan and cultured. Expression of PGE2 synthesizing enzymes was determined by qPCR. Data are mean±SD of 3 wells.
as §1, with “7h:” for “7g:”, “tumor-infiltrating cells and normal tissue-infiltrating” for “tumor-infiltrating”, “CD33” for “PGE2 synthesizing enzymes”
FIG. 13c: Fresh CRC specimens were collected after surgery, and small pieces of tumor tissues were stimulated with Curdlan for 20 hours. In the case of the laminarin treatment, the tissues were first treated with laminarin for 4 hours, and then Curdlan was added to the cultured tissues. The expression of the PGE2 synthase was determined by qPCR. The data are expressed as mean SD of 3 wells. *p<0.05, **p<0.01, and ****p<0.0001. […]

Dectin-1 [2] = target: T2, Dectin-1 (Mus musculus, UniProt Q6QLQ4); assay: Stimulation of Apc^Min/+ polyp-infiltrating leukocytes / CD11b+ cells with Curdlan, with or without laminarin pre-treatment, qPCR; assay type: cell-based; settings: polyp-infiltrating leukocytes from Apc^Min/+ mice, Curdlan 20 hours, qPCR
T2 construct: CD11b^+ cells and CD11c^+ cells were purified from colorectal polyps with autoMACS; endogenous in cells; host or cells: primary CD11b+/CD11c+ cells or all polyp-infiltrating cells from colorectal/intestinal polyps of WT (C57BL/6J, AOM-DSS) or Apc^Min/+ mice
T2 sequence (Q6QLQ4 1-244): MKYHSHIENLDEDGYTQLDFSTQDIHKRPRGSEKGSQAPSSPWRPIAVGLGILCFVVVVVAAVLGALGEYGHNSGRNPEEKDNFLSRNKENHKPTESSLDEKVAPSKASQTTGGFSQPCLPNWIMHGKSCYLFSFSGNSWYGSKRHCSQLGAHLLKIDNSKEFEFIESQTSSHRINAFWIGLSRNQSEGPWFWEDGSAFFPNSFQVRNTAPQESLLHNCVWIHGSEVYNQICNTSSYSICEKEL
Experimental: (§2) FIG. 5f: All polyp-infiltrating cells of the Apc^Min/+ mice were collected, and were stimulated with Curdlan for 20 hours, and then the expression of the genes involved in the PGE2 synthesis was measured by qPCR. A laminarin treatment was performed for 4 hours before the Curdlan treatment.
as §2, with “5g: Purified CD11b^+” for “5f: All”, “treatment. The data in (FIGS. 5a to 5g) are representative of two independent experiments and expressed as mean±SD. *p<0.05, **p<0.01, and ***p<0.001.” for “treatment.”
Infiltrating cells in mouse/human colorectal tumor/non-tumor tissues (2×10^5) or mouse/human colorectal tumor/non-tumor tissue pieces (3 mm×3 mm cut) were cultured with Dectin-1 ligands Curdlan, OXCA, or laminarin, or with PGE2 stimulation for 20 h at 37° C. under 5% CO2 in 96-well flat-bottomed plates (Falcon, Becton Dickinson) in a volume of 0.2 ml RPMI containing 10% FBS and 1% streptomycin plus penicillin. After the culture, cells or tissues were collected and mRNA expression of tumor- or anti-tumor-associated genes was measured by qPCR described in Quantitative reverse transcription PCR section described later. […]

Dectin-1 [3] = target: T2, Dectin-1; settings: autoimmune-prone; cited from earlier work

- PGE2 synthase gene expression (DECTIN-1 [1]; CRC tissues or cancer-infiltrating leukocytes): induction
- expression of CD33 (DECTIN-1 [1]; tumor or normal tissue-infiltrating cells): upregulated
- expression of Ptges3, Ptgs1 and Ptgs2 (Dectin-1 [2]): significantly induced
Substance: Curdlan
- disease induction in SKG mice (Dectin-1 [3]): evokes arthritis, spondyloarthritis and ileitis
